Test results taken from US9403823B2, “Protein kinase inhibitors” (ORIBASE PHARMA, priority 2012, dated 2016).
Where two headings read alike, the source gives them in different places.

Legend:
KDR (VEGFR2) = biological target: T1, KDR (VEGFR2) (Homo sapiens, UniProt P35968); assay: In vitro kinase assay (Z'-LYTE), KDR (VEGFR2); format: biochemical; conditions: read-out: % of inhibition of the kinase compared to the control
T1 construct: purchased Invitrogen
Protocol: (§1) 1) In Vitro Kinase Assays (Table 10 to Table 21)
(§2) The inhibitory activity of the compounds on several kinases including BRAF, EGFR (ErbB1), EGFR (ErbB1) T790M L858R, FGFR2, KDR (VEGFR2), PDGFRA (PDGFR alpha), SRC and other was evaluated by Invitrogen using the Z′-LYTE® technology. Briefly, the Z′-LYTE® biochemical assay employs a fluorescence-based, coupled-enzyme format and is based on the differential sensitivity of phosphorylated and non-phosphorylated peptides to proteolytic cleavage. The peptide substrate is labeled with two fluorophores—one at each end—that make up a FRET pair. A ratiometric method, which calculates the ratio (the Emission Ratio) of donor emission to acceptor emission after excitation of the donor fluorophore at 400 nm, is used to quantitate reaction progress.
(§3) The compounds are screened in 1% DMSO (final) in the well. For 10 point titrations, 3-fold serial dilutions are conducted from the starting concentration. All Peptide/Kinase Mixtures are diluted to a 2× working concentration in the appropriate Kinase Buffer. All ATP Solutions are diluted to a 4× working concentration in Kinase Buffer (50 mM HEPES pH 7.5, 0.01% BRIJ-35, 10 mM MgCl2, 1 mM EGTA). ATP Km apparent is previously determined using a Z′-LYTE® assay.
(§4) Each compound was incubated at a concentration of 100 nM (excepted to test the activity against ABL and ABL T315I for which the compounds were incubated at a concentration of 10 μM) and the tables 10 to 21 summarize the results obtained showing the inhibitory power of a compound.

HUVEC = assay: In vitro cell proliferation assay (MTT), HUVEC; format: cell-based; conditions: Homo sapiens, read-out: EC50, anti-proliferative activity
Protocol: (§5) 2) In Vitro Cell Proliferation Assays (Table 22 to Table 35)
(§6) Cancer cell lines (5×10^3 cells per well) or HUVEC (1×10^4 cells per well) or HRMEC (1×10^4 cells per well) were distributed in 96-well plates and incubating in duplicate with escalating concentrations (10 nM to 3 μM) of compounds for 72 hr. Cell proliferation was measured using MTT (3[4,5-dimethylthiazol-2-yl]-2,5-diphenyltetrazolium bromide).

FGFR2 = biological target: T2, FGFR2 (Homo sapiens, UniProt P21802); assay: In vitro kinase assay (Z'-LYTE), FGFR2; format: biochemical; conditions: read-out: % of inhibition of the kinase compared to the control
T2 construct: purchased Invitrogen
T2 sequence (P21802 22-821): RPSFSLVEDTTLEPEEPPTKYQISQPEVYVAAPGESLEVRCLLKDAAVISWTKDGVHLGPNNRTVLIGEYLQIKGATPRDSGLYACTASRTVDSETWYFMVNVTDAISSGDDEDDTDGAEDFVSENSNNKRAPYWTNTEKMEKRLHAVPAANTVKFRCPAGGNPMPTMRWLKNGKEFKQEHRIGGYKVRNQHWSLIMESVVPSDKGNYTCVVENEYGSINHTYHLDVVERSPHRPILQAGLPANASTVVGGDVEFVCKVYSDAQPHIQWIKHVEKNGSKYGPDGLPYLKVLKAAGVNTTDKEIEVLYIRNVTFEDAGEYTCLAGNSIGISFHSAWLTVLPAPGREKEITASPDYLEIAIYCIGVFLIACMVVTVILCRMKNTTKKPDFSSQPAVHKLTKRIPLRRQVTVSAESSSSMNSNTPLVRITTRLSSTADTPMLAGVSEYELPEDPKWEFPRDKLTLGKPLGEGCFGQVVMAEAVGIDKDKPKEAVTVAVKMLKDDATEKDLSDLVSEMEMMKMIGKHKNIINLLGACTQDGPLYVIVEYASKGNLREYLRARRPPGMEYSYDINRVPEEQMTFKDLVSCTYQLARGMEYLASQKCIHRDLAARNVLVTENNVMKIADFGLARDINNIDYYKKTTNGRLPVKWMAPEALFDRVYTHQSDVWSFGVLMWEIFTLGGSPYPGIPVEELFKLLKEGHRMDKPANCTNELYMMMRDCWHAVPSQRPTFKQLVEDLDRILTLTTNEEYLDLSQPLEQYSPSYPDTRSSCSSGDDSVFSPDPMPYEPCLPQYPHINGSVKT
Protocol: as §1, §2, §3, §4

MDA-MB-231 cell line = assay: In vitro cell proliferation assay (MTT), MDA-MB-231; format: cell-based; conditions: Homo sapiens, read-out: EC50, anti-proliferative activity
Protocol: as §5, §6

HepG2 cell line = assay: In vitro cell proliferation assay (MTT), HepG2; format: cell-based; conditions: Homo sapiens, read-out: EC50, anti-proliferative activity
Protocol: as §5, §6

EGFR (ErbB1) = biological target: T3, EGFR (ErbB1) (Homo sapiens, UniProt P00533); assay: In vitro kinase assay (Z'-LYTE), EGFR (ErbB1); format: biochemical; conditions: read-out: % of inhibition of the kinase compared to the control
T3 construct: purchased Invitrogen
T3 sequence (P00533 25-1210): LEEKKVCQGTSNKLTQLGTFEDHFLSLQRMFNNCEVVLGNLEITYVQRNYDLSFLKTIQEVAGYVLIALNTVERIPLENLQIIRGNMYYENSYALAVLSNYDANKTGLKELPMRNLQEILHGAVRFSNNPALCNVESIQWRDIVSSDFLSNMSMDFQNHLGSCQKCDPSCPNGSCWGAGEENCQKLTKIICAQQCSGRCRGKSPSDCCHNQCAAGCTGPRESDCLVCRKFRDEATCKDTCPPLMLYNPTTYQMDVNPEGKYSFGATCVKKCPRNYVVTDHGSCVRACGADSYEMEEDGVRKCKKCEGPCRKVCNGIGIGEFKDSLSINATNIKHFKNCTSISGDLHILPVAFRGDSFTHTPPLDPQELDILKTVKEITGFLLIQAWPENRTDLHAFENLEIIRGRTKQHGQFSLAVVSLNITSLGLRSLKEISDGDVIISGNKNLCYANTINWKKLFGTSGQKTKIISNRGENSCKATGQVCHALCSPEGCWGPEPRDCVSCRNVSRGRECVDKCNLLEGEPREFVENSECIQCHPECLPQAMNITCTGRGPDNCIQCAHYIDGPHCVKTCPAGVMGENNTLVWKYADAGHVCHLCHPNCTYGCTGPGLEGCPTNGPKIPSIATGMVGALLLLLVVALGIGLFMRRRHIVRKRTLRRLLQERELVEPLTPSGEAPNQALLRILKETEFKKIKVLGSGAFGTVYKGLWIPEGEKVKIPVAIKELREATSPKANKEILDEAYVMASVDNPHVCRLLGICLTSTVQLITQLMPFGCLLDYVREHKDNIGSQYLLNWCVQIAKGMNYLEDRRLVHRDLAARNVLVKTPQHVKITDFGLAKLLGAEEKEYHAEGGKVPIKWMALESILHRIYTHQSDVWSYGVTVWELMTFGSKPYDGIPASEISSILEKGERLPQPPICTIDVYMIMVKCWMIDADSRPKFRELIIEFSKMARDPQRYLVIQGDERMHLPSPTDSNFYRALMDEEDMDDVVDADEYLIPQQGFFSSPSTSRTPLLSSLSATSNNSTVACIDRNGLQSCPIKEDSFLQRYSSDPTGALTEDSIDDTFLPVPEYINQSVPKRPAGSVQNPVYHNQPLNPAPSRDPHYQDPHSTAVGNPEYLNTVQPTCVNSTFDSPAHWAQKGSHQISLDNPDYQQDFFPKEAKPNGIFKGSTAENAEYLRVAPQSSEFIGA
Protocol: as §1, §2, §3, §4

BRAF = biological target: T4, BRAF (Homo sapiens, UniProt P15056); assay: In vitro kinase assay (Z'-LYTE), BRAF; format: biochemical; conditions: read-out: % of inhibition of the kinase compared to the control
T4 construct: purchased Invitrogen
T4 sequence (P15056 whole entry): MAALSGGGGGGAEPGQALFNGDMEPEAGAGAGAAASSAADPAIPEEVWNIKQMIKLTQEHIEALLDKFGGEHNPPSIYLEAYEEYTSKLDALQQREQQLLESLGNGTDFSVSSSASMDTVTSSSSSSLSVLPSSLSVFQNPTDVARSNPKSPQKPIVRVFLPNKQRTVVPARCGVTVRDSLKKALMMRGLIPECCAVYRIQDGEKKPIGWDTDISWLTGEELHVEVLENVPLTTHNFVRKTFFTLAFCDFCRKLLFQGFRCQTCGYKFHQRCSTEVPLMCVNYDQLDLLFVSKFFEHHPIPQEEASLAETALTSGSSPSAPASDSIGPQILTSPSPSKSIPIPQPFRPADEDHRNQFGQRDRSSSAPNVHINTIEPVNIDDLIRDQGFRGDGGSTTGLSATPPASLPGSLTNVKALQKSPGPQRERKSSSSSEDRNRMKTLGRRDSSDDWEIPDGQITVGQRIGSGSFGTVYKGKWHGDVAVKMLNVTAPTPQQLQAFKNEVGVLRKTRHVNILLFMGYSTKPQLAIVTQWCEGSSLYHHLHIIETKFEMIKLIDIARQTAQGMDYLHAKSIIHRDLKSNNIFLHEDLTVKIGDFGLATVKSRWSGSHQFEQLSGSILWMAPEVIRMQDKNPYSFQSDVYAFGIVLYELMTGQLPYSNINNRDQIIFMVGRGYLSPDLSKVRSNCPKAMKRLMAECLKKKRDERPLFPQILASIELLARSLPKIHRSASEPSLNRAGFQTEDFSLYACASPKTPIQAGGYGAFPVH
Protocol: as §1, §2, §3, §4

HeLa cell line = assay: In vitro cell proliferation assay (MTT), HeLa; format: cell-based; conditions: Homo sapiens, read-out: EC50, anti-proliferative activity
Protocol: as §5, §6

A549 cell line = assay: In vitro cell proliferation assay (MTT), A549; format: cell-based; conditions: Homo sapiens, read-out: EC50, anti-proliferative activity
Protocol: as §5, §6

PDGFRA (PDGFR alpha) = biological target: T5, PDGFRA (PDGFR alpha) (Homo sapiens, UniProt P16234); assay: In vitro kinase assay (Z'-LYTE), PDGFRA; format: biochemical; conditions: read-out: % of inhibition of the kinase compared to the control
T5 construct: purchased Invitrogen
Protocol: as §1, §2, §3, §4

SRC = biological target: T6, SRC (Homo sapiens, UniProt P12931); assay: In vitro kinase assay (Z'-LYTE), SRC; format: biochemical; conditions: read-out: % of inhibition of the kinase compared to the control
T6 construct: purchased Invitrogen
T6 sequence (P12931 whole entry): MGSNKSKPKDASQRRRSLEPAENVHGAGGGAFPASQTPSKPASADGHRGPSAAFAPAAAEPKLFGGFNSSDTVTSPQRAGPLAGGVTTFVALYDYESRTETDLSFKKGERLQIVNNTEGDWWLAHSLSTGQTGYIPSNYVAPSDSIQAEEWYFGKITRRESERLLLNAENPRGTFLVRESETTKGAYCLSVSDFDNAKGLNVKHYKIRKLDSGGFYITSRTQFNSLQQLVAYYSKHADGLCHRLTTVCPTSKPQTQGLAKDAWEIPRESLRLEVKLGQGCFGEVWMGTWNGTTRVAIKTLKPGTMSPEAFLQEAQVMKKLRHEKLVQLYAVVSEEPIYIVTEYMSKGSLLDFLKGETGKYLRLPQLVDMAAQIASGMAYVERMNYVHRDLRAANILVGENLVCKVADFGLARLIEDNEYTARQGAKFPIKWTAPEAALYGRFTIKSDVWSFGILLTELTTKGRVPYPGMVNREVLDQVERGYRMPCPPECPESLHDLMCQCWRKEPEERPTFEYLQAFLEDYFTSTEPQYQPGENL
Protocol: as §1, §2, §3, §4

HuH7 cell line = assay: In vitro cell proliferation assay (MTT), HuH7; format: cell-based; conditions: Homo sapiens, Huh-7; HuH7, 72 hr, MTT; read-out: EC50, anti-proliferative activity
Protocol: as §5, §6

T1 sequence (P35968 20-1356): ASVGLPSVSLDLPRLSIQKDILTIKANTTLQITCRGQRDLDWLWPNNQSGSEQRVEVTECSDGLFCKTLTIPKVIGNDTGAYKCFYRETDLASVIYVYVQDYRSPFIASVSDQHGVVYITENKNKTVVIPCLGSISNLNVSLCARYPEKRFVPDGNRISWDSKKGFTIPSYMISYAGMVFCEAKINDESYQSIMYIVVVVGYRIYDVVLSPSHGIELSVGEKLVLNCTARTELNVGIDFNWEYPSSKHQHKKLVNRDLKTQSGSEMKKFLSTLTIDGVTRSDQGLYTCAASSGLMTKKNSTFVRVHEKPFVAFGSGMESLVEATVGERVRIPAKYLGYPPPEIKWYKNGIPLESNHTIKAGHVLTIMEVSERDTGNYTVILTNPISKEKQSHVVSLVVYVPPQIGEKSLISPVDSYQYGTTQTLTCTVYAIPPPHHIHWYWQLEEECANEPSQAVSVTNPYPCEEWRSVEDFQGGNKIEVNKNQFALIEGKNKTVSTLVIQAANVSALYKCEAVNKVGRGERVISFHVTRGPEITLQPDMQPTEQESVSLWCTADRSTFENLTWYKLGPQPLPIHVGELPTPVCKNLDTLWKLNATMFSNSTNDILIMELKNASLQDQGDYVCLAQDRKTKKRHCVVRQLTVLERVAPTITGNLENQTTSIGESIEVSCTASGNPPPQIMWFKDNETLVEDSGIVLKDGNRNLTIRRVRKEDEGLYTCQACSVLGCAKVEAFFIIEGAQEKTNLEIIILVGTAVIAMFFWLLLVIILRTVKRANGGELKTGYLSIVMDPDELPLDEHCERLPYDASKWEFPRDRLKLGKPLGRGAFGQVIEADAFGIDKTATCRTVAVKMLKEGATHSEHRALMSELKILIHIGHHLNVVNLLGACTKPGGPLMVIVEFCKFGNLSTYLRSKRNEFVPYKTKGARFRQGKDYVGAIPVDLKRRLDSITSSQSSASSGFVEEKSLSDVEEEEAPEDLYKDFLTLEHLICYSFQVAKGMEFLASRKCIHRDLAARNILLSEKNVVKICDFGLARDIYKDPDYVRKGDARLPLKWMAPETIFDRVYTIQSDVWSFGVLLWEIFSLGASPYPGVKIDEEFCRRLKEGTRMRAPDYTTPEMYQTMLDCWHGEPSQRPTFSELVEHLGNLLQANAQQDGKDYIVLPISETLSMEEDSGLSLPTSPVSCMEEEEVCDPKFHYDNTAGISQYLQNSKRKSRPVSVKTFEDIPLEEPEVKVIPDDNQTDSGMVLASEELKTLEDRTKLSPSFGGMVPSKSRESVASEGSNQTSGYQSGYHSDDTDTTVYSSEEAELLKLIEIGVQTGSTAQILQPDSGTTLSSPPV

SMILES | inhibition at 0.1 µM (KDR (VEGFR2)) [%] | inhibition at 0.1 µM (FGFR2) [%] | EC50 (MDA-MB-231 cell line; MDA-MB-231, 72 h) [µM] | EC50 (HepG2 cell line; HepG2, 72 h) [µM] | inhibition at 0.1 µM (EGFR (ErbB1)) [%] | inhibition at 0.1 µM (BRAF) [%] | EC50 (HeLa cell line; 72 hr, MTT) [µM] | EC50 (A549 cell line; A549, 72 hr, MTT) [µM] | inhibition at 0.1 µM (PDGFRA (PDGFR alpha)) [%] | EC50 (MDA-MB-231 cell line; MDA-MB-231, 72 hr, MTT) [µM] | inhibition at 0.1 µM (SRC) [%] | EC50 (HuH7 cell line) [µM] | EC50 (HepG2 cell line; HepG2, 72 hr, MTT) [µM] | EC50 (HeLa cell line; 72 h) [µM] | EC50 (A549 cell line; A549, 72 h) [µM] | EC50 (HUVEC; 72 hr, MTT) [µM] | EC50 (HUVEC; 72 h) [µM]
CC(=O)c1cc2cc(NCc3cc(NC(=S)Nc4cccc(C(F)(F)F)c4)ccc3C)cnc2[nH]1 [OR1015, 1-{3-[(2-Acetyl-1H-pyrrolo[2,3-b]pyridin-5-ylamino)-methyl]-4-methyl-phenyl}-3-(3-trifluoromethyl-phenyl)-thiourea] | < 50 | < 50 | – | 0.1 to 1 | < 50 | < 50 | ≥ 1 | ≥ 1 | < 50 | ≥ 1 | < 50 | – | – | – | – | – | 0.1 to 1
CCCCCCNC(=O)c1cc2cc(NCc3cc(NC(=O)c4ccc(CN5CCN(C)CC5)c(C(F)(F)F)c4)ccc3C)cnc2[nH]1 [OR1069, 5-{2-Methyl-5-[4-(4-methyl-piperazin-1-ylmethyl)-3-trifluoromethyl-benzoylamino]-benzylamino}-1H-pyrrolo[2,3-b]pyridine-2-carboxylic acid hexylamide] | – | – | 0.1 to 1 | 0.1 to 1 | – | – | ≥ 1 | – | – | – | – | – | – | – | – | – | 0.1 to 1
COc1ccccc1C(=O)Nc1ccc(F)c(CNc2cnc3[nH]c(C(C)=O)cc3c2)c1 [OR1063, N-{3-[(2-Acetyl-1H-pyrrolo[2,3-b]pyridin-5-ylamino)-methyl]-4-fluoro-phenyl}-2-methoxy-benzamide] | – | – | – | – | – | – | ≥ 1 | ≥ 1 | – | ≥ 1 | – | – | ≥ 1 | – | – | ≥ 1 | –
CC(=O)c1cc2cc(NCc3cc(NC(=O)c4ccc(CN5CCN(C)CC5)c(C(F)(F)F)c4)ccc3F)cnc2[nH]1 [OR0972, N-{3-[(2-Acetyl-1H-pyrrolo[2,3-b]pyridin-5-ylamino)-methyl]-4-fluoro-phenyl}-4-(4-methyl-piperazin-1-ylmethyl)-3-trifluoromethyl-benzamide] | ≥ 50 | ≥ 50 | ≤ 0.1 | ≤ 0.1 | ≥ 50 | < 50 | – | – | – | – | – | – | – | 0.1 to 1 | 0.1 to 1 | – | 0.1 to 1

Second part, led by results:

inhibition at 0.1 µM (KDR (VEGFR2)) [%] | inhibition at 0.1 µM (FGFR2) [%] | EC50 (MDA-MB-231 cell line; MDA-MB-231, 72 h) [µM] | EC50 (HepG2 cell line; HepG2, 72 h) [µM] | inhibition at 0.1 µM (EGFR (ErbB1)) [%] | inhibition at 0.1 µM (BRAF) [%] | EC50 (HeLa cell line; 72 hr, MTT) [µM] | EC50 (A549 cell line; A549, 72 hr, MTT) [µM] | inhibition at 0.1 µM (PDGFRA (PDGFR alpha)) [%] | EC50 (MDA-MB-231 cell line; MDA-MB-231, 72 hr, MTT) [µM] | inhibition at 0.1 µM (SRC) [%] | EC50 (HuH7 cell line) [µM] | EC50 (HepG2 cell line; HepG2, 72 hr, MTT) [µM] | EC50 (HeLa cell line; 72 h) [µM] | EC50 (A549 cell line; A549, 72 h) [µM] | SMILES | EC50 (HUVEC; 72 hr, MTT) [µM] | EC50 (HUVEC; 72 h) [µM]
≥ 50 | ≥ 50 | 0.1 to 1 | 0.1 to 1 | ≥ 50 | ≥ 50 | ≥ 1 | ≥ 1 | – | – | – | – | – | – | – | CC(=O)c1cc2cc(NCc3cc(NC(=O)c4ccc(CN5CCN(C)CC5)c(F)c4)ccc3C)cnc2[nH]1 [OR0885, N-{3-[(2-Acetyl-1H-pyrrolo[2,3-b]pyridin-5-ylamino)-methyl]-4-methyl-phenyl}-3-fluoro-4-(4-methyl-piperazin-1-ylmethyl)-benzamide] | ≥ 1 | –
≥ 50 | < 50 | – | – | ≥ 50 | < 50 | – | – | ≥ 50 | – | ≥ 50 | ≥ 1 | – | – | – | CC(=O)c1cc2cc(NCc3cc(NC(=O)c4ccc(CN5CCN(C)CC5)cc4)ccc3C)cnc2[nH]1 [OR0734, N-{3-[(2-Acetyl-1H-pyrrolo[2,3-b]pyridin-5-ylamino)-methyl]-4-methyl-phenyl}-4-(4-methyl-piperazin-1-ylmethyl)-benzamide] | – | –
≥ 50 | ≥ 50 | ≤ 0.1 | ≤ 0.1 | ≥ 50 | < 50 | – | – | – | – | – | – | – | 0.1 to 1 | 0.1 to 1 | CC(=O)c1cc2cc(NCc3cccc(NC(=O)c4ccc(CN5CCN(C)CC5)c(C(F)(F)F)c4)c3)cnc2[nH]1 [OR0926, N-{3-[(2-Acetyl-1H-pyrrolo[2,3-b]pyridin-5-ylamino)-methyl]-phenyl}-4-(4-methyl-piperazin-1-ylmethyl)-3-trifluoromethyl-benzamide] | – | 0.1 to 1
